From patent US6372752B1 (priority 2000, dated 2002) come the findings set out here.

Structures can show the parent of a compound that is named as a salt. Where two headings read alike, the source gives them in different places.

Data set [1] concerns the target InhA (Mycobacterium tuberculosis, UniProt P9WGR1). The experiment in a line: InhA inhibition assay (NADH consumption, absorbance at 340). The class given is biochemical. The conditions noted are these: for inhibition at 40 µM: 40 μM compound, read-out: Percentage Inhibition (@ 40 μM).
The subject of data set [2] is Bacillus Calmet-Guerin (BCG), Pasteur strain, of Mycobacterium bovis. The experiment in a line: microbe, parasite or virus in culture. The class given is cell-based. The following applies: Mycobacterium tuberculosis variant bovis BCG.
The test system of data set [3] is h. Kidney. The data set is described as follows: Cell Tox (h. Kidney). The following applies: h. Kidney cells.
Data set [4] concerns h. Lung. The data set is described as follows: Cell Tox (h. Lung). The following applies: h. Lung cells.
Data set [5] has as its system m. Embryo. The experiment in a line: Cell Tox (m. Embryo). The conditions noted are these: m. Embryo cells.
Setting [6] is: read-out: IC50's for BCG growth.

InhA, sequence (P9WGR1 whole entry, looked up): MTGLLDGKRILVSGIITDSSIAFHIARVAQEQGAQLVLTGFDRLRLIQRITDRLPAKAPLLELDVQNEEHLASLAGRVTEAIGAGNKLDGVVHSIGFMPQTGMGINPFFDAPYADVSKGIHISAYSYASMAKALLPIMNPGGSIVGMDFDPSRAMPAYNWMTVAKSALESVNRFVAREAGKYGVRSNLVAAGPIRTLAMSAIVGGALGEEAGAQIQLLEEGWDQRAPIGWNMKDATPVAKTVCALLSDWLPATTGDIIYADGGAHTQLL

`Cc1ccc(Cl)cc1N1CCN(C(=O)c2ccc3[nH]ccc3c2)CC1` [Compound 57] yielded an IC50 in data set [1] of 1.04 µM.

On to `O=C(Cc1ccccc1F)NCCc1ccc(Cl)cc1` [Compound 1, N-[2-(4-Chlorophenyl)-ethyl]-2-(2-fluoro-phenyl)acetamide], for which the inhibition at 40 µM in data set [1] (Table 2) worked out at 82%.

`CC[C@@H](CO)NCCN[C@@H](CC)CO` [ethambutol, ethambutol dihydrochloride]: the IC50 in data set [2] (read-out: BCG Growth IC-50) and in data set [2] (setting [6]) was 10 µM throughout.

For the compound `O=C(c1ccc(Cl)cc1)C1CCN(C(=O)c2ccc3[nH]ccc3c2)CC1` [Compound 5, [4-(4-Chlorobenzoyl)-piperidin-1-yl]-(1H-indol-5-yl)-methanone], the inhibition at 40 µM in data set [1] (Table 6) amounted to 97%.

As for `O=C(c1ccc2[nH]ccc2c1)N1CCN(c2cccc(Cl)c2)CC1` [Compound 58], the IC50 in data set [1] was found to be 1.21 µM.

In data set [1], `O=C(c1ccc2[nH]ccc2c1)N1CCN(c2ccc(Cl)cc2)CC1` [Compound 56] had an IC50 of 4.2 µM.

For the compound `CCCCCCCCCCCCCCCC(=O)SCCNC(=O)CCNC(=O)[C@H](O)C(C)(C)COP(=O)(O)OP(=O)(O)OC[C@H]1O[C@@H](n2cnc3c(N)ncnc32)[C@H](O)[C@@H]1OP(=O)(O)O` [palmitoyl-CoA, reference compound], in data set [1] (at 375 uM, read-out: inhibition by internal standard), the inhibition at 375 µM is about 40%.

Turning to `O=C(c1ccc2[nH]ccc2c1)N1CCN(C2c3ccccc3-c3ccccc32)CC1` [Compound 70], the “Cell Tox (h. Kidney)” value in data set [3] lay within 35 to 44 µM. The IC50 in data set [2] (read-out: BCG Growth IC-50) turned out to be 8.3 µM. Moreover, in data set [4], the “Cell Tox (h. Lung)” value is 24 to 48 µM. In addition, the “Cell Tox (m. Embryo)” value in data set [5] is 46 to 52 µM.

For the compound `O=C(c1ccc2[nH]ccc2c1)N1CCN(C2c3cc(Br)ccc3-c3ccc(Br)cc32)CC1` [Compound 73], the IC50 stood at 6.2 µM in data set [2] (read-out: BCG Growth IC-50) and 0.12 µM in data set [1] (Table 9, read-out: InhA IC-50).

Regarding `CO[C@H]1/C=C/O[C@@]2(C)Oc3c(C)c(O)c4c(O)c(c(/C=N/N5CCN(C)CC5)c(O)c4c3C2=O)NC(=O)/C(C)=C\C=C\[C@H](C)[C@H](O)[C@@H](C)[C@@H](O)[C@@H](C)[C@H](OC(C)=O)[C@@H]1C` [rifampicin], the IC50 in data set [2] (read-out: BCG Growth IC-50) and in data set [2] (setting [6]) was 0.01 µM throughout.

With `O=C(c1ccc2[nH]ccc2c1)N1CCN(C2c3ccccc3-c3cc([N+](=O)[O-])ccc32)CC1` (stereo not shown) [Compound 72], in data set [3], the “Cell Tox (h. Kidney)” value turned out to be 29 µM. Besides, the IC50 in data set [2] (read-out: BCG Growth IC-50) was found to be 2.8 µM; in data set [1] (Table 9, read-out: InhA IC-50) it was 0.13 µM. Besides, the “Cell Tox (h. Lung)” value in data set [4] was found to be 34 µM. The “Cell Tox (m. Embryo)” value in data set [5] turned out to be 23 µM.

Turning to `CCCC(=O)C1(c2ccccc2)CCN(C(=O)c2ccc3[nH]ccc3c2)CC1` [Compound 4, 1-[1-(1H-Indole-5-carbonyl)-4-phenyl-piperidin-4-yl]-butan-1-one], in data set [3], the “Cell Tox (h. Kidney)” value was in the range of 23 to 48 µM. Moreover, the IC50 in data set [2] (read-out: BCG Growth IC-50) was over 25 µM; in data set [1] it was 0.23 µM. For the same compound, the “Cell Tox (h. Lung)” value in data set [4] fell in the range of 33 to 50 µM. Moreover, the “Cell Tox (m. Embryo)” value in data set [5] was 46 to 50 µM.

For `NNC(=O)c1ccncc1` [isoniazid, isonicotinic acid hydrazide], the IC50 in data set [2] (read-out: BCG Growth IC-50) and in data set [2] (setting [6]) was 3 µM throughout.

In the case of `O=C(c1ccc2[nH]ccc2c1)N1CCN(c2cccc(C(F)(F)F)c2)CC1` [Compound 59], the IC50 in data set [1] stood at 1.89 µM.

With `O=C(c1ccc2[nH]ccc2c1)N1CCN(C2c3ccccc3-c3ccc([N+](=O)[O-])cc32)CC1` (stereo not shown) [Compound 71], in data set [3], the “Cell Tox (h. Kidney)” value worked out at 28 µM. Besides, the IC50 was found to be 8.3 µM in data set [2] (read-out: BCG Growth IC-50) and 0.12 µM in data set [1] (Table 9, read-out: InhA IC-50). Besides, the “Cell Tox (h. Lung)” value in data set [4] came to 37 µM. Besides, the “Cell Tox (m. Embryo)” value in data set [5] turned out to be 23 µM.

A word on the inhibition: it is the drop in the measured response relative to a control, in per cent.
